Measurements: US11413289B2 (Aerovate Therapeutics, Inc., priority 2019, dated 2022)

Assay: Thermal stability and polymorphism of imatinib salts
Format: physicochemical
In the case of malate, the “thermal stability and polymorphic forms” value is reported as “suitable thermal stability and few or single polymorphic forms”.
For O=S(=O)(O)CCO [isethionate], the “thermal stability and polymorphic forms” value was “suitable thermal stability and few or single polymorphic forms”.
In the case of tartrate, the “thermal stability and polymorphic forms” value is reported as “suitable thermal stability and few or single polymorphic forms”.
In the case of malonate, the “thermal stability and polymorphic forms” value is reported as “suitable thermal stability and few or single polymorphic forms”.
